{"source": "patent US6682897B1", "about": "“Peptides derived from human heat protein 60 for treatment of diabetes, compositions, methods and kits” (Yeda Research and Development Co. Ltd., priority 1995, dated 2004)", "key": {"draining lymph nodes": {"test_system": "draining lymph nodes", "experiment": "T-cell proliferative responses of NOD mice to peptides (Example 4, FIG. 3)", "format": "cell-based", "conditions": "NOD mice immunized with 25 μg peptide in IFA, lymph nodes 10 days later, 20 μg/ml", "description": "FIG. 3 is a graph showing T-cell proliferative responses of NOD mice to peptides. Groups of three NOD mice were […] with peptides mouse p12, mouse p277, GAD-p35 and MT-p278 in IFA each at a dose of 25 μg in IFA. The draining lymph nodes were removed 10 days later and assayed for proliferative responses to the corresponding peptide at the concentrations of 5, 10, 20, and 50 μg/ml. The stimulation at the optimal concentration of 20 μg/ml is shown. The following ranges of cpm were obtained in medium controls: mouse p12, 881; mouse p277, 1243; MT-p278, 698 and GAD-p35 1430. Peptide mouse p38 is a peptide derived from mouse hsp60 (556-573), which has no sequence homology with the tested peptides and serves as a negative control of specificity. […] Each assay was done in triplicates for which the SD values are indicated by the bars. There was no cross-reactivity between the peptides (not shown).\n(iii) T-Cell proliferation to peptides. Mice. Nine week old NOD mice or mice of other strains were immunized in the hind foot pads with 0.1 ml of an emulsion containing 25 μg peptide in complete Freund's adjuvant (CFA; Difco, Detroit, Mich.) mixed with an equal volume of phosphate-buffered saline (PBS). The draining popliteal lymph nodes were removed 10 days later and suspensions of lymphocytes in triplicate cultures were tested for proliferation in the presence of the various peptides (5 μg/ml) using the incorporation of [^3H]-thymidine as described (Elias et al., 1991). The results are shown as the stimulation index (SI): the ratio of the mean cpm in the presence of the test peptide to the mean cpm of control cultures without the peptide. Standard errors were always less than 10% of the means.\nSpontaneous T cell responses in pre-diabetic NOD mice were detected to the mouse p277 peptide (Elias et al., 1991; Birk et al., 1996) and to larger fragments of the mouse hsp60 molecule that contained the mouse p277 sequence (Birk et al., 1996). […] Other peptides immunogenic for NOD mice are the MT-p278 peptide (residues 458-474 in the Mycobacterial hsp60 molecule), and GAD-p35 (residues 524-543 in the GAD65 molecule)."}, "female NOD mice": {"test_system": "female NOD mice", "experiment": "Peptide treatment of 10-week old NOD mice, development of diabetes (Example 4, FIG. 4)", "format": "in vivo", "conditions": "single s.c. injection in IFA at 10 weeks, observed through 8 months of age, vs IFA alone", "description": "FIG. 4 is a graph showing the effect of peptide administration on diabetes. Groups of 10-20 NOD mice were treated at 10 weeks of age with 100 μg of mouse p12, p277, p35-GAD or MT-p278 in IFA, or IFA alone. The mice were bled monthly and followed for the onset of hyperglycemia.\n(§1) (iv) Treatment and follow-up. Peptides, […], in PBS, were emulsified with an equal volume of IFA and injected subcutaneously into 10-week-old NOD females as described (Elias and Cohen, 1995). Control mice received an equal volume of PBS emulsified in IFA. The mice were monitored monthly for non-fasting blood glucose at 10am using the Blood Glucose Sensor (MediSense. Inc., Waltham, Mass.). Mice with a blood glucose greater than 11.1 mmol/L were considered to be diabetic; this concentration of glucose was greater than 3 standard deviations above the mean blood glucose concentration measured in non-diabetic mice (Elias and Cohen, 1995). Histological examination of the islets of the pancreas was done on sections stained with hematoxylin and eosin. The sections were scored independently by two observers who both were unaware of the identity of the groups. The chi square test was used to ascertain the statistical differences between the various treatments.\nFollowing a protocol shown to be effective with mouse p277(Elias et al., 1991; Elias and Cohen, 1994; Elias and Cohen, 1995), groups of 10-week old female NOD mice were treatedby a single subcutaneous injection of each peptide ([…]) emulsified in IFA."}, "[1]": {"test_system": "serum antibodies of the IgG1, IgG2a and IgG2b isotypes", "experiment": "Serum anti-peptide antibody isotypes by ELISA in peptide-treated NOD mice (FIG. 5)", "format": "in vivo", "description": "FIGS. 5A-5D show the IgG1, IgG2a and IgG2b antibody isotypes in response to peptide treatment. Mice were treated as described in the legend to FIG. 4. Individual samples were analyzed for antibodies to mouse p12 A; p277 B; GAD-p35 C; and MT-p278 D, of the IgG1, IgG2a and IgG2b isotypes. Similar effects were obtained in two experiments. The results are presented as the absorbance at 405 nm (OD) of 10 individual mice in each group. The level of significance of the prevalence of IgG1 and IgG2b antibodies in groups A and B compared to C and D is P<0.001. The differences between the levels of IgG1 and IgG2b antibodies compared to the IgG2a antibodies in groups A and B were significant (P<0.001). There was no cross-reactivity between the antibodies (not shown).\n(v) Serum Antibodies. Mice were bled monthly to detect antibody responses. The ELISA assay was done as described (Elias et al., 1991). Briefly, flat bottom Maxi-sorb plates (Nunc, Roskilde, Denmark) were coated, for the detection of anti-peptide antibodies, with […] of peptide in PBS, at a concentration of […] for 2 h at room temperature followed by over night incubation at 4° C. After incubation with peptide, the plates were washed and blocked for 2 h at 37° C. with 7% BSA (Sigma) in PBS. Sera were diluted 1:50 then added for 2 h at 37° C., followed by incubation for 2 h with […] of goat anti-mouse IgG (gamma chain Fc specific) conjugated to alkaline phosphatase (Jackson, Philadelphia, Pa.). After washing, the plates were incubated with the substrate, diethanolamine (Sigma) and read using an ELISA reader at 405 nm.\nSuccessful treatment of STZ-induced diabetes with mouse peptide p277 was associated with the appearance of anti-peptide antibodies predominantly of the IgG1 and IgG2b isotypes (Elias and Cohen, 1996). The peptide-treated NOD mice for their serum antibodies was therefore examined. […] Thus, effectiveness in inhibiting diabetes was associated with the induction of an antibody response mainly of the IgG1 and IgG2b isotypes."}, "[2]": {"test_system": "Peripheral mononuclear cells (PBMC) of IDDM patients", "experiment": "T-cell proliferative response of PBMC from newly diagnosed IDDM patients (Example 3)", "format": "cell-based, human", "conditions": "for T-cell proliferative response (SI): antigen 10 μg/ml, 6 days, SI more than 2.0 positive", "description": "To determine the T-cell responses to the various hsp60 peptides, lymphocytes from the peripheral blood of newly diagnosed (2 weeks-4 months) IDDM patients were tested in a proliferation assay. 10-20 ml of blood were removed into a sterile tube containing heparin as anti-coagulant and diluted in PBS 1:2. Peripheral mononuclear cells (PBMC) were isolated by centrifuging the blood over a lymphoprep layer. The PBMC were tested for proliferation in triplicates, in the presence of the various antigens (10 μg/ml) for 6 days using the incorporation of [^3H]-thymidine as a measure of proliferation. The antigens tested were human hsp60 or the hsp60 peptides p277(Val^6-Val^11), p12, p32 and control peptide p278. The T cell proliferative response is depicted as stimulation index (SI): The ratio between peptide-stimulated thymidine incorporation and background (no antigen added) thymidine incorporation by the T cells."}, "[3]": {"test_system": "draining popliteal lymph node lymphocytes", "experiment": "T-cell proliferation of draining lymph node cells of NOD mice immunized with hsp60 peptides in CFA (Example 1, FIG. 2)", "format": "cell-based", "conditions": "NOD mice immunized with peptide emulsified in CFA in hind foot pads, assayed after 10 days", "description": "(iii) T-Cell proliferation to peptides. Mice. Nine week old NOD mice or mice of other strains were immunized in the hind foot pads with 0.1 ml of an emulsion containing 25 μg peptide in complete Freund's adjuvant (CFA; Difco, Detroit, Mich.) mixed with an equal volume of phosphate-buffered saline (PBS). The draining popliteal lymph nodes were removed 10 days later and suspensions of lymphocytes in triplicate cultures were tested for proliferation in the presence of the various peptides (5 μg/ml) using the incorporation of [^3H]-thymidine as described (Elias et al., 1991).\nThe immunogenicity of the hsp60 peptides p12, p32, p277(Val^6-Val^11) and p278 in NOD mice was tested by immunizing the mice with the peptides emulsified in CFA in the hind foot pads, and assaying the proliferative responses of draining lymph node cells after 10 days as described above in section iii(a)."}, "NOD/Lt female mice": {"test_system": "NOD/Lt female mice", "experiment": "Treatment of NOD mice with peptides in IFA: diabetes and mortality (Example 2)", "format": "in vivo", "conditions": "100 μg peptide in IFA s.c., nine-week old NOD/Lt females; for Diabetes (%): persistent blood glucose over 11.1 mmol/l at 25 weeks of age", "description": "as §1, with “Mice with a blood glucose greater than 11.1 mmol/L were considered to be diabetic; this concentration of glucose was greater than 3 standard deviations above the mean blood glucose concentration measured in non-diabetic mice (Elias and Cohen, 1995).” left out\nTo test whether the p12 and p32 peptides can block the progression of diabetes as p277(Val^6-Val^11), the p277(Val6-Val^11), p12 or p32 peptides (100 μg in a 0.1 cc emulsion of IFA) were administered subcutaneously to groups of 10-12 nine-week old NOD/Lt female mice of the Jackson Laboratory, Bar-Harbor, Me. Diabetes, determined as persistent blood glucose levels over 11.1 mmol/l, was tested at 25 weeks of age. Control mice were untreated or were treated with p278."}, "[4]": {"conditions": "compared with p277; cited from earlier work"}}, "note": "Several values for one entry are separate records, joined by “and”; a condition that tells them apart may be missing. Identical values can stand only once. Marks after values point to notes of the source that are not given here."}
{"substance": "SRLSKVAPVIKARMMEYGTT [GAD-p35, peptide from the GAD65 molecule (524-543)]", "values": [{"measurement": "immunogenicity (T-cell proliferative response)", "setting": "draining lymph nodes", "result": "immunogenic, but less so"}, {"measurement": "development of diabetes", "setting": "female NOD mice", "result": "no different than was treatment with IFA alone"}, {"measurement": "mice that made specific IgG1 antibodies", "setting": "[1]; 10 individual mice per group, ELISA", "result": "none"}, {"measurement": "titers of IgG2b antibodies", "setting": "[1]; compared with mouse p12 and mouse p277 groups", "result": "significantly lower titers"}, {"measurement": "antibody titers of the IgG1 and IgG2b isotypes", "setting": "[1]; peptide-treated NOD mice, sera diluted 1:50, ELISA", "result": "did not respond as strongly"}]}
{"substance": "NEDQKIGIEIIKRTLKI [p278, human hsp60 residues 458-474; control peptide]", "values": [{"measurement": "T-cell proliferative response (SI)", "setting": "[2]; Patient 1", "result": 0.5}, {"measurement": "T-cell proliferative response (SI)", "setting": "[2]; Patient 2", "result": 0.8}, {"measurement": "T-cell proliferative response (SI)", "setting": "[2]; Patient 3", "result": 0.7}, {"measurement": "T-cell proliferative response (SI)", "setting": "[2]; Patient 4", "result": 0.9}, {"measurement": "immunogenicity (proliferative responses of draining lymph node cells)", "setting": "[3]", "result": "non-immunogenic"}, {"measurement": "Mortality (%)", "setting": "NOD/Lt female mice", "result": 45, "unit": "%"}, {"measurement": "therapeutic effect in treatment of diabetes", "setting": "NOD/Lt female mice", "result": "no therapeutic effect"}, {"measurement": "Diabetes (%)", "setting": "NOD/Lt female mice", "result": 90, "unit": "%"}]}
{"substance": "hsp60: human 60 KDa heat shock protein (SEQ ID NO:1)", "values": [{"measurement": "T-cell proliferative response (SI)", "setting": "[2]; Patient 1", "result": 5.6}, {"measurement": "T-cell proliferative response (SI)", "setting": "[2]; Patient 2", "result": 7.5}, {"measurement": "T-cell proliferative response (SI)", "setting": "[2]; Patient 3", "result": 8.0}, {"measurement": "T-cell proliferative response (SI)", "setting": "[2]; Patient 4", "result": 3.4}, {"measurement": "T-cell proliferative response (SI)", "setting": "[2]; Patient 5", "result": 1.2}, {"measurement": "T-cell proliferative response (SI)", "setting": "[2]; Patient 6", "result": 6.7}, {"measurement": "T-cell proliferative response (SI)", "setting": "[2]; Patient 7", "result": 10.3}, {"measurement": "T-cell proliferative response (SI)", "setting": "[2]; Patient 8", "result": 1.3}, {"measurement": "patients that responded", "setting": "[2]; of 8 newly diagnosed IDDM patients, SI more than 2.0", "result": "6/8"}]}
{"substance": "p277(Val^6): p277 variant with cysteine at position 6 replaced by valine (VLGGGVALLRCIPALDSLTPANED; p277 peptide (437-460); UniProt P10809 437-460, looked up, variant C442V)", "values": [{"measurement": "activity in the treatment of diabetes", "setting": "[4]", "result": "as active as p277"}]}
{"substance": "EIIKRTLKIPAMTIAKNAGV [p32]", "values": [{"measurement": "immunogenicity (proliferative responses of draining lymph node cells)", "setting": "[3]", "result": "strongly immunogenic"}, {"measurement": "Mortality (%)", "setting": "NOD/Lt female mice", "result": "25* %"}, {"measurement": "therapeutic effect in treatment of diabetes", "setting": "NOD/Lt female mice", "result": "effective in treatment of diabetes"}, {"measurement": "Diabetes (%)", "setting": "NOD/Lt female mice", "result": "30% and 50* %"}]}
{"substance": "p277(Val^11): p277 variant with cysteine at position 11 replaced by valine (VLGGGCALLRVIPALDSLTPANED; p277 peptide (437-460); UniProt P10809 437-460, looked up, variant C447V)", "values": [{"measurement": "activity in the treatment of diabetes", "setting": "[4]", "result": "as active as p277"}]}
{"substance": "EEIAQVATISANGDKEIGNI [p12]", "values": [{"measurement": "immunogenicity (proliferative responses of draining lymph node cells)", "setting": "[3]", "result": "strongly immunogenic"}, {"measurement": "Mortality (%)", "setting": "NOD/Lt female mice", "result": "10* %"}, {"measurement": "therapeutic effect in treatment of diabetes", "setting": "NOD/Lt female mice", "result": "effective in treatment of diabetes"}, {"measurement": "Diabetes (%)", "setting": "NOD/Lt female mice", "result": 20, "unit": "%"}]}
